In patent US8487090B2, “Water solution of 20(R)-ginsenoside Rg3 pharmaceutical composition and process thereof” (Dalian Fusheng Natural Medicine Development Co., Ltd., priority 2006, dated 2013):
Like-named read-outs stand apart in the source and are kept apart here. Marks after values point to notes of the source that are not given here.

What was measured:
[1] = cited from earlier work
[2] = Chemotherapy toxicity attenuation bioassay, blood counts; format: in vivo, mouse; details: Heps bearing mice
Mouse Melanoma B16 Model = experiment: Caudal vein inoculation model, lung metastatic colonies; format: in vivo, C57BL/6 mouse
Protocol: (§1) Take intravenous administration, twice per day. For mice models inoculated with human tumor models and cells, continue injection for seven days; for mice models inoculated with mouse tumor cells, continue injection for five days.
(§2) Positive controls: CTX, 30 mg/kg; MMC, 2 mg/kg; 5Fu, 30 mg/kg; intraperitoneal or intravenous injection, once daily, continues for 7 days.
(§3) Mouse B16 melanoma cells in logarithmic growth phase are taken out under sterile condition, and a cell suspension with a density of about 2.5×10^5 cells/ml is prepared. Inoculate 0.2 ml/mouse of cell suspension into caudal vein of C57BL/6 mouse. Administrate the test drug next day according to the experimental design protocol, euthanize the animal after ˜3 weeks and remove the lungs from mice and count the metastatic colony in the lungs of each mouse. Calculate the tumor inhibition percentage based on the group mean colony by the following formula: Tumor inhibition percentage (%)=[(mean colony of control group−mean colony of treatment group)/mean colony of control group]×100% 5.3 Antineoplastic Toxicity Attenuation Bioassay

[3] = system: mouse liver cancer model (Heps); experiment: Chemotherapy efficacy potentiation bioassay, tumor weight; format: in vivo
Protocol: Take strongly growing tumor cells under sterile condition, and prepare it into a cell suspension with a density of about 1˜2×10^7 cells/ml by a homogenate method. Inoculate 0.2 ml/mouse of the cell suspension subcutaneously into the armpit of the axillary host. Administrate the test drug next day according to the experimental design protocol. Euthanize each group animal after ˜3 weeks and remove the tumor from mice and weigh it. Calculate the tumor inhibition percentage by the following formula: Tumor inhibition percentage (%)=[(mean tumor weight of control group−mean tumor weight of treatment group)/mean tumor weight of control group]×100% 5.2.2 Caudal Vein Inoculation Model

[4] = system: Human Gastric Cancer MGC Model; experiment: Stomach in situ inoculation model, survival; format: in vivo, nude mice; details: 30 mg/kg/d ip × 7 qd
Protocol: as §1, §2
Take strongly growing in-vivo 2nd-generation MGC stomach cancer (cells) under sterile condition, and prepare it into a cell suspension with a density of 2×10^7 cells/ml by a homogenate method. Inject 0.05 ml of the cell suspension into the muscular layer of greater curvature of stomach of the nude mice via a surgery operation. Administrate the above mice with test drug next day according to the experimental design protocol, and calculate the life extension percentage of the tumor bearing host: Life extension percentage (%)=(mean survival days of treatment group/mean survival days of control)×100% 5.1.2 Liver In Situ Inoculation Model

[5] = system: Human Liver Cancer QGY Model; experiment: Liver in situ inoculation model, survival; format: in vivo, nude mice; details: 30 mg/kg/d ip × 7 qd
Protocol: as §1, §2

[6] = system: Human Intestine Cancer LOVO Model; experiment: Efficacy bioassay on intestine cancer model, survival; format: in vivo, nude mice; details: 30 mg/kg/d ip × 7 qd
From the text: Human intestine cancer LOVO model, human stomach cancer MGC model, and human liver cancer QGY model, all tumor strains are in vivo subcultured for more than 2nd generation. Mouse melanoma B16 cell are subcultured and maintained by Pharmacology Department of Shanghai Institute of Pharmaceutical Industry.
as §1, §2

[7] = format: in vivo, C57BL/6 mouse; details: for Body Weight of Animals (g) End: Table 5
Protocol: as §3

## CC(C)=CCC[C@](C)(O)[C@H]1CC[C@]2(C)[C@@H]1[C@H](O)C[C@@H]1[C@@]3(C)CC[C@H](O[C@@H]4O[C@H](CO)[C@@H](O)[C@H](O)[C@H]4O[C@@H]4O[C@H](CO)[C@@H](O)[C@H](O)[C@H]4O)C(C)(C)[C@@H]3CC[C@]12C [20(R)-ginsenoside Rg3]
[1]
  solubility in water: insoluble in water

## CC(C)=CCC[C@](C)(O)[C@H]1CC[C@]2(C)[C@@H]1[C@H](O)C[C@@H]1[C@@]3(C)CC[C@H](O[C@@H]4O[C@H](CO)[C@@H](O)[C@H](O)[C@H]4O[C@@H]4O[C@H](CO)[C@@H](O)[C@H](O)[C@H]4O)C(C)(C)[C@@H]3CC[C@]12C [20(S)-ginsenoside Rg3]
[1]
  solubility in water: easily dissolvable in water

## O=P1(N(CCCl)CCCl)NCCCO1 (stereo not shown) [CTX, Cyclophosphamide]
[2]; 10 × 3 mg/kg/d
  Hb: 82 ± 8.4 g/L
  RBC 10^12/L: 2.8 ± 0.3** 10^12/L
  WBC (10^9/L): 3.2 ± 0.5** 10^9/L
Mouse Melanoma B16 Model; Table 2, 100 mg/kg/d ip × 2 qd
  Antimetastatic Percentage %: 92.41%
  Lung Colony (number) mean ± SD: 3.5 ± 3.7 number
Mouse Melanoma B16 Model; Table 5, 15 mg/kg/d ip × 7 qd
  Antimetastatic Percentage %: 48.11%
  Lung Colony (number) mean ± SD: 26.1 ± 5.2 number
Mouse Melanoma B16 Model; Table 5, 30 mg/kg/d ip × 7 qd
  Antimetastatic Percentage %: 93.44%
  Lung Colony (number) mean ± SD: 3.30 ± 2.6 number
[3]; 10 × 3 mg/kg/d
  Mean Tumor weight (g, mean ± SD): 0.89 ± 0.29 g
  Tumor Inhibition Percentage (%): 56.52%
[4]
  Life Extension Percentage T/C × %: 181.02%
  Mean Survival Time (d) mean ± SD: 41.20 ± 3.8 days
[5]
  Life Extension Percentage T/C × %: 157.53%
  Mean Survival Time (d) mean ± SD: 34.50 ± 4.0 days
[6]
  Life Extension Percentage T/C × %: 214.71%
  Mean Survival Time (d) mean ± SD: 29.20 ± 4.8 days
[7]; Table 2, 100 mg/kg/d ip × 2 qd
  Body Weight of Animals (g) end: 19.8/22.6 g
[7]; 15 mg/kg/d ip × 7 qd
  Body Weight of Animals (g) End: 20.2/24.7 g
[7]; 30 mg/kg/d ip × 7 qd
  Body Weight of Animals (g) End: 19.9/22.6 g

## O=c1[nH]c(=O)n([C@H]2C[C@H](O)[C@@H](CO)O2)cc1F [Example 5Fu, 5-Fluorodeoxyuridine]
[2]; 25 × 3 mg/kg/d
  Hb: 90 ± 13.0 g/L
  RBC 10^12/L: 3.1 ± 0.4 10^12/L
  WBC (10^9/L): 3.9 ± 0.3** 10^9/L
[3]; 25 × 3 mg/kg/d
  Mean Tumor weight (g, mean ± SD): 1.08 ± 0.34 g
  Tumor Inhibition Percentage (%): 41.30%

## CN(Cc1cnc2nc(N)nc(N)c2n1)c1ccc(C(=O)N[C@@H](CCC(=O)O)C(=O)O)cc1 [MTX]
[2]; 5 × 3 mg/kg/d
  Hb: 51 ± 1.0 g/L
  RBC 10^12/L: 1.8 ± 0.1** 10^12/L
  WBC (10^9/L): 1.6 ± 0.1** 10^9/L
[3]; 5 × 3 mg/kg/d
  Mean Tumor weight (g, mean ± SD): 0.27 ± 0.01 g
  Tumor Inhibition Percentage (%): 85.32%

## N.N.[Cl][Pt][Cl] [PDD]
[3]; 1 × 3 mg/kg/d
  Mean Tumor weight (g, mean ± SD): 1.09 ± 0.30 g
  Tumor Inhibition Percentage (%): 40.76%
